Laboratory results taken from patent publication US4645756A, “[α,ω-bis(diphenylphosphino)hydrocarbon]bis[(thiosugar)gold] and bis[(selenosugar)gold] derivatives, pharmaceutical compositions and method of use” (priority 1985, dated 1987).
Several values for one entry are separate records, joined by “and”; a condition that tells them apart may be missing. Equal values may be shown once.

Tests used:
[1] = Struck et al. 1966; cited from earlier work
[2] = system: P388 lymphocytic leukemia; experiment: in vivo ip P388 leukemia mouse model; conditions: for ILS (Max), maximum increase in lifespan: mice bearing ip P388 leukemia, ip days 1-5, slash-separated figures are separate experiments; for ILS relative to cisplatin / activity in the P388 leukemia assay: ip P388, in words
Excerpt: P388 lymphocytic leukemia is currently the most widely used animal tumor model for screening for antitumor agents and for detailed evaluation of active compounds. This tumor system is widely accepted as an antitumor agent screening tool because it is sensitive to virtually all of the clinically active antineoplastic agents; quantitative and reproducible; amenable for large-scale screening; and predictive for activity in other animal tumor models.
10^6 P388 leukemia cells are inoculated ip in B6D2F1 mice. Twenty-four hours later, if the tumor inoculum proves to be free of bacterial contamination (as determined by 24 hours incubation in thioglycollate broth), animals are randomized into groups of 6 and housed in shoebox cages. […] An equal volume of saline is added; if the drug comes out of solution an equal volume of polyethoxylated castor oil is added and then saline qs to a concentration such that the desired dose is delivered in 0.5 ml. The final concentration of DMA, ethanol and polyethoxylated castor oil is 10 percent. Dilutions for lower doses are made with saline so there is a decreasing proportion of organic solvents in the vehicle with decreasing dosage. These vehicles provide soluble formulations (or suspensions). Formulations are prepared immediately prior to injection. The compound is administered ip on Days 1 through 5 (i.e. treatment is initiated 24 hrs after tumor inoculation). Each experiment includes three groups of 6 animals as untreated controls and animals treated with a positive control, cisplatin, at two dose levels. Animals are weighed as a group on Days 1, 5 and 9 and average weight change (Δwt.) is used as a reflection of toxicity. Each experiment also includes an inoculum titration--groups of 8 mice inoculated ip with 10^5 to 10° P388 leukemia cells. The titration is used to calculate cell kill achieved by treatment with drugs. Animals are monitored daily for mortality and experiments are terminated after 45 days. The endpoint is median survival time (MST) and increase in lifespan (ILS) which is the percentage of increase in MST relative to untreated controls. Untreated controls inoculated ip with 10^6 P388 leukemia cells generally survive for a median of 10 or 11 days. A drug is considered active if it produces ≥25 percent ILS.

[3] = system: M5076 reticulum cell sarcoma; experiment: ip implanted M5076 reticulum cell sarcoma in mice; assay type: in vivo, mouse; conditions: mice bearing ip M5076; ip qD × 10; slash-separated figures are separate experiments
Procedure: Another chemosensitive tumor model is intraperitoneally (ip) implanted M5076 reticulum cell sarcoma in mice. In this system B6D2F female mice are inoculated with 0.5 ml of a 10 percent (w:v) brei of M5076 prepared from pooled subcutaneous (sc) tumors excised at about 21 days from C57B1/6 donors. Drugs are administered ip. Daily treatement is begun 24 hours after implantation and is continued for ten days. The treatment regimen for M5076 is more prolonged than for P388 because of the slower growth rate and longer control survival time of the M5076 tumor. The antitumor activity of Compounds No. 1 and No. 2 of Table A in the M5076 reticulum cell sarcoma tumor model is set forth in Table 2.

B16 melanoma cells = experiment: B16 mouse melanoma cell clonogenic cytotoxicity assay in vitro, two hour exposure; assay type: cell-based; conditions: B16 cloning efficiency; 2 hour exposure; 10% fetal calf serum
Procedure: The B16 mouse melanoma cell assay measures the ability of a compound to inhibit the clonogenic capacity of cells in vitro following a two hour exposure to the compound.
B16 melanoma (highly metastatic subline, F10) are used and maintained as monolayer cultures in Minimal Essential Media (Grand Island Biological Co., Grand Island, N.Y.) supplemented with 10% calf serum, 1% antibiotics in a 5% CO2 humidified incubator at 37° C. Asynchronous populations of cells are harvested and replated to 5000 cells/plate in sterile 60 mm×15 mm petri plates. Plates are incubated overnight to allow attachment of the cells to the plate. Cells are treated with the compound to be evaluated under sterile conditions, allowed to react for 2 hours followed by aspiration of medium. Plates are washed one time with 5 ml of phosphate buffered saline (PBS), followed by the addition of 5 ml of fresh media. […] Viability is measured by the ability of a cell to form a colony of greater than 50 cells. […] Plates are dried and counted with a Biotran III Automatic Count Totalized (New Brunswick Scientific Co., Edison, N.J.). Mean and standard deviation of triplicate samples are determined for each drug concentration. The data are analyzed by plotting the log of the survival fraction (number of colonies in drug treated plates/number of colonies in controls) versus the drug concentration. […]

B16 melanoma = experiment: in vivo ip B16 melanoma in mice; set-up: species or system mouse
Procedure: In this system, groups of eight B6D2F1 mice are inoculated ip with 0.5 ml of a 10% (w:v) brei of B16 melanoma prepared from pooled sc tumors excised at 14-21 days from […] donor mice. Daily treatment is begun 24 hours after tumor implantation and is continued daily for ten (10) days. The route of drug administration is ip. The mice are monitored daily for survival for sixty (60) days. Antitumor activity is assessed by prolongation of median survival time. An ILS of ≥25% indicates activity in this tumor model.
Similarly, in another additional in vivo tumor model, namely B16 melanoma in mice, Compound No. 1 from Table A, administered ip in a dosage schedule of 8, 4, 2, 1 and 0.5 mg/kg produced an average increase in lifespan (ILS) of 32% at a maximally tolerated dose (MTD) of 3.4 μM/kg.

[4] = system: HT-29 human colon carcinoma cells; experiment: HT-29 human colon carcinoma cell kill in vitro, 2 hour exposure; assay type: cell-based; conditions: +FCS
Procedure: Additionally, in another in vitro assay, Compound No. 1 effectively killed HT-29 human colon carcinoma cells, with an IC50 (+FCS) of 5 μM following a 2 hour exposure.

ADJ-PC6 Plasmacytoma = ADJ-PC6 Plasmacytoma implanted sc in BALB/c female mice; assay type: in vivo, mouse
Procedure: Likewise, Compound No. 1 from Table A was tested in an additional in vivo tumor model known as ADJ-PC6 Plasmacytoma. In this assay, tumor cells are carried by serial sc passage in BALB/c female mice and then collected aseptically on ca. day 21 and minced in Hank's balanced salt solution. The cells are then dispersed by homogenization in a loose-fitting teflon glass homogenizer, and cell concentration is adjusted to 4×10^6 viable ([…]) cells per ml by hemocytometer counts. A total of 0.5 ml (2×10^6 cells) is implanted sc on the right flank of BALB/c female mice in groups of 8. Treatment is given ip on Days 1-10, and tumors are measured in perpendicular diameters with a vernier caliper on Day 18. Tumor volume is calculated by multiplying length×width^2×0.5. Generally, ≥75% inhibition of tumor growth reflects significant antitumor effect.

[5] = system: mammary adenocarcinoma 16/c; experiment: mammary adenocarcinoma 16/c implanted sc in C3H mice; assay type: in vivo, mouse; conditions: ip, q4D × 5
Procedure: Compound No. 1 from Table A was also tested in a further in vivo tumor model, mammary adenocarcinoma 16/c, a tumor model sensitive to DNA binders and alkylating agents. In this experiment, the tumor was implanted sc in C3H mice, and the drug was administered ip or iv on an intermittant treatment schedule, i.e., once on days 1, 5, 9, 13 and 17. Tumors were measured 3 weeks after implantation, and activity was assessed by degree of tumor growth inhibition.

[6] = Dumas et al., JP 58,192,893; cited from earlier work
P388 leukemia = conditions: cited from earlier work
[7] = system: mammary adenocarcinoma 16/c; conditions: general statement on the positive control; cited from earlier work

**Q.** Which cytotoxic activity [1] does the source give for `c1ccc(P(CCP(c2ccccc2)c2ccccc2)c2ccccc2)cc1` [ethylenebis(diphenylphosphine)] here?
**A.** The cytotoxic activity was “cytotoxic activity”.

**Q.** What does the source list for “μ-[1,2-Bis(diphenylphosphino)ethane]-bis[1-seleno-β-D-glucopyranosato-se)gold(I)] [compound 7]”?
**A.** ILS (Max), maximum increase in lifespan [2]: 36% and 27%; ILS (MAX), maximum increase in lifespan [3]: 46%

**Q.** Which results are given for “μ-[1,2-Bis(diphenylphosphino)ethane]bis[2,3,4,6-tetra-O-acetyl-1-thio-β-D-glucopyranosato-S)gold(I)] [compound 2]”?
**A.** ILS relative to cisplatin [2]: comparable to the clinically useful antitumor agent cisplatin; activity in the P388 leukemia assay [2]: particularly good activity; ILS (Max), maximum increase in lifespan [2]: 95%; ILS (MAX), maximum increase in lifespan [3]: 67%

**Q.** With “μ-[1,2-Bis(diphenylphosphino)ethane]bis[1,thio-α-D-mannopyranosato-S)gold(I)] [compound 5]” as the compound, how does the “ILS (Max), maximum increase in lifespan” value [2] read?
**A.** The value was 90% and 74%.

**Q.** With “μ-8 1,2-Bis(Diphenylphosphino)Ethane]Bis[(2,3,4,6-Tetra-O-Acetyl-1-Thio-α-D-Mannopyranosato-S)Gold(I)] [compound 3]” as the compound, how does the “ILS relative to cisplatin” value [2] read?
**A.** Its value is “comparable to the clinically useful antitumor agent cisplatin”.

**Q.** What about the “activity in the P388 leukemia assay” value [2] of the same compound?
**A.** Its value is “particularly good activity”.

**Q.** And the “ILS (Max), maximum increase in lifespan” value [2]?
**A.** Its value is 30% and 25%.

**Q.** For “μ-[1,3-Bis(diphenylphosphino)propane]bis[1-thio-β-D-glucopyranosato-S)gold(I)] [compound 6]”, which “ILS (Max), maximum increase in lifespan” value [2] is on record?
**A.** Its value is 28% and 56% and 41%.

**Q.** What about the “ILS (MAX), maximum increase in lifespan” value [3] of the same compound?
**A.** The value was 35%.

**Q.** What does the source list for `OCC1OC([S][Au])C(O)C(O)C1O.OCC1OC([S][Au])C(O)C(O)C1O.c1ccc(P(CCP(c2ccccc2)c2ccccc2)c2ccccc2)cc1` [Compound No. 1]?
**A.** IC50 (B16 melanoma cells): 1000 ± 200 nM; average increase in lifespan (ILS) (B16 melanoma; B16 melanoma in mice, ip 8, 4, 2, 1 and 0.5 mg/kg, at MTD of 3.4 μM/kg): 32%; ILS, maximum increase in lifespan (B16 melanoma; mice bearing ip B16 melanoma, ip qD × 10, slash-separated figures are separate experiments): 37% and 26%; IC50 [4]: 5000 nM; % Inhibition of tumor growth (Day 18) (ADJ-PC6 Plasmacytoma; 3 mg/kg/day × 10, ip): 50%; MTV, mean tumor volume on Day 18 (ADJ-PC6 Plasmacytoma; 3 mg/kg/day × 10, ip): 295 ± 163 mm^3; N.P., proportion of mice without palpable tumor on Day 18 (ADJ-PC6 Plasmacytoma; 3 mg/kg/day × 10, ip): 0/8; % Inhibition of tumor growth (Day 18) (ADJ-PC6 Plasmacytoma; 6 mg/kg/day × 10, ip): 98%; MTV, mean tumor volume on Day 18 (ADJ-PC6 Plasmacytoma; 6 mg/kg/day × 10, ip): 11 ± 28 mm^3; N.P., proportion of mice without palpable tumor on Day 18 (ADJ-PC6 Plasmacytoma; 6 mg/kg/day × 10, ip): 6/7; inhibition of ADJPC6 Plasmacytoma (ADJ-PC6 Plasmacytoma; another experiment, same dose (6 mg/kg/day × 10, ip) and schedule): 23%; ILS relative to cisplatin [2]: comparable to the clinically useful antitumor agent cisplatin; activity in the P388 leukemia assay [2]: particularly good activity; ILS (Max), maximum increase in lifespan [2]: 86 ± 8%; Inhibition ([5]; Experiment 1, 12 mg/kg): 96%; Mean Tumor Volume on Day 21 ([5]; Experiment 1, 12 mg/kg): 42 ± 60 mm^3; N.P., proportion of mice without palpable tumors on Day 21 ([5]; Experiment 1, 12 mg/kg): 3/5; ILS (MAX), maximum increase in lifespan [3]: 45% and 65%

**Q.** Which “ILS (Max), maximum increase in lifespan” value [2] does the source give for “μ-[1,2-Bis(Diphenylphosphino)Ethane]-bis [compound 8, μ-[1,2-Bis(Diphenylphosphino)Ethane]-bis [1-Thio-D-Ribofuranosato-S)Gold(I)]]” here?
**A.** The value was 50% and 56%.

**Q.** With `CC[PH](CC)(CC)[Au][Se]C1OC(COC(C)=O)C(OC(C)=O)C(OC(C)=O)C1OC(C)=O` (centres unmarked) [selenium analog of auranofin] as the compound, how does the antiarthritic utility [6] read?
**A.** The antiarthritic utility was “antiarthritic agents”.

**Q.** With “μ-1,2-Bis(Diphenylphosphino)Ethane]Bis[(1-Thio-β-D-Galactopyranosato-S)Gold(I)] [compound 4]” as the compound, how does the “ILS (Max), maximum increase in lifespan” value [2] read?
**A.** The value was 85% and 100% and 147%.

**Q.** What about the “ILS (MAX), maximum increase in lifespan” value [3] of the same compound?
**A.** Its value is 37%.

**Q.** For `CC(=O)OC[C@H]1O[C@@H]([S-])[C@H](OC(C)=O)[C@@H](OC(C)=O)[C@@H]1OC(C)=O.CCP(CC)CC.[Au+]` [auranofin], which “activity in an intraperitoneal P388 leukemia tumor model” value (P388 leukemia; Mirabelli et al. 1984) is on record?
**A.** Its value is “respectable activity”.

**Q.** What about the “antitumor effects in animals bearing P388 leukemia” value (P388 leukemia; Simon et al. 1981, Mirabelli et al. 1985) of the same compound?
**A.** The value was “significant antitumor effects”.

**Q.** Which results are given for `N.N.[Cl][Pt][Cl]` [Cisplatin, cisplatin]?
**A.** tumor growth inhibition (ADJ-PC6 Plasmacytoma; positive control, in words): complete tumor growth inhibition; Inhibition ([5]; Experiment 1, 6 mg/kg): 97%; Mean Tumor Volume on Day 21 ([5]; Experiment 1, 6 mg/kg): 30 ± 64 mm^3; N.P., proportion of mice without palpable tumors on Day 21 ([5]; Experiment 1, 6 mg/kg): 6/8; Inhibition ([5]; Experiment 2, 6 mg/kg): 100% and 98%; N.P., proportion of mice without palpable tumors on Day 21 ([5]; Experiment 2, 6 mg/kg): 8/8 and 7/8; Inhibition ([5]; Experiment 2, 8 mg/kg): 36%; Mean Tumor Volume on Day 21 ([5]; Experiment 2, 8 mg/kg): 711 ± 268 mm^3; N.P., proportion of mice without palpable tumors on Day 21 ([5]; Experiment 2, 8 mg/kg): 0/7; inhibition of the growth of mammary adenocarcinoma 16/c [7]: complete inhibition
